Assay results reported in PMC8951016, “Computational Design and Biological Evaluation of Analogs of Lupin Peptide P5 Endowed with Dual PCSK9/HMG-CoAR Inhibiting Activity” (Pharmaceutics, 2022).

Tests used:
[1] = test system: LDLR on HepG2 cell surface; experiment: In-cell western (ICW), LDLR on HepG2 surface in the presence of PCSK9; assay type: cell-based, human; settings: PCSK9 4 μg/mL, 2 h; vs untreated control cells; p < 0.001
Protocol: For the experiments, a total of 3 × 10^4 HepG2 cells/well were seeded in 96-well plates and treated with 4.0 μg/mL PCSK9-WT and 4.0 μg/mL PCSK9 + peptides P5 and/or P5 analogs (50 µM) and vehicle (H2O) for 2 h at 37 °C under 5% CO2 atmosphere. Thus, cells underwent to ICW assay following conditions already optimized. See Supplementary Materials for detailed information. […]
cLex Co., Nagano, Japan). The peptides (P5, P5-Best, P-H6A, and P5-S7A) were synthe-sized by the company GeneScript (Piscataway, NJ, USA) at >95% purity. The antibody against HMG-CoAR was bought from Abcam (Cambridge, UK). […]
HMG-CoAR Aactivity Assay. […] Subsequently, the samples were mixed and the absorbance at 340 nm read by the microplate reader Synergy H1 (Winooski, VT, USA) at time 0 and 10 min. The HMG-CoAR-dependent oxidation of NADPH and the inhibition properties of peptides were measured by absorbance reduction, which is directly proportional to enzyme activ- […]
In Vitro PCSK9-LDLR Binding Assay. […] The reaction was stopped with 2.0 M sulfuric acid and the absorbance at 450nm was measured using the Synergy H1 fluorescent plate reader […]

LDL uptake, HepG2 cells [2] = experiment: Fluorescent LDL uptake in HepG2 cells in the presence of PCSK9; assay type: cell-based, human; settings: PCSK9 4 μg/mL, 2 h; vs untreated control cells; p < 0.05
Protocol: HepG2 cells (3 × 10^4/well) were seeded in 96-well plates and kept in complete growth medium for 2 days before treatment. The third day, cells were washed with PBS and then starved overnight (O/N) in DMEM without FBS and antibiotics. After starvation, they were treated with 4.0 μg/mL PCSK9 and 4.0 μg/mL PCSK9 + P5 and P5 analogs peptides (50 µM), and vehicle (H2O) for 2 h with at 37 °C under 5% CO2 atmosphere. Fluorescent LDL-uptake was finally assessed following optimized protocol. See Supplementary Materials for further details.
PBS for 1.5 h at RT. LDLR primary antibody solution (1:3000 in 5% BSA in PBS, 25 µL/well) was incubated O/N at +4 °C. […] The reaction was stopped with 2 M H2SO4 and then the absorbance at 450 nm was measured using the microplate reader Synergy H1 (Winoo-ski, VT, USA). After the read, cells were stained by adding 1 X Janus Green stain, incubat-ing for 5 min at RT. […]
Afterward 100 µL 0.5 M HCl for well were added and incubated for 10 min. After 10 sec-onds shaking, the OD at 595 nm was measured using the microplate reader Synergy H1 […]
Fluorescent LDL Uptake. […] The degree of LDL uptake was measured using the Synergy H1 fluo-rescent plate reader (Winooski, VT, USA) (excitation and emission wavelengths 540 and 570 nm, respectively). Fluorescent LDL-uptake was finally assessed following optimized […]

[3] = test system: LDLR on HepG2 cell surface; settings: cellular level; cited from earlier work
LDL uptake, HepG2 cells [4] = settings: cited from earlier work
[5] = molecular target: T1, HMG-CoAR (catalytic domain) (Homo sapiens, UniProt P04035); settings: cited from earlier work
T1 construct: finally the HMG-CoAR (cata- lytic domain) (2 µL); purchased Sigma-Aldrich
T1 sequence (P04035 426-888 limits assumed): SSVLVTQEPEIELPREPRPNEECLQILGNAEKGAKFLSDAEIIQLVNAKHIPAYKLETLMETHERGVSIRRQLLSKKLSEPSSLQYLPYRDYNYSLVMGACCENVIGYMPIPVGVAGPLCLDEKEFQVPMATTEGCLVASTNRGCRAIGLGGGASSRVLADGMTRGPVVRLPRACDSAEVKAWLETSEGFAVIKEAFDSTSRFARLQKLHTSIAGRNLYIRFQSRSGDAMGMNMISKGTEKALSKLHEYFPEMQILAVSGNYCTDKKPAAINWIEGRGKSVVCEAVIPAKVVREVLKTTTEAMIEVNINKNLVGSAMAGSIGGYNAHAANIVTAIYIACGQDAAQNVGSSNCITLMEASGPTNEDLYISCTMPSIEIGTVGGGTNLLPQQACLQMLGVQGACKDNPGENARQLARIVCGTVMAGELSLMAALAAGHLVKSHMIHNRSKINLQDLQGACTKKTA

SREBP-2 = settings: cited from earlier work
Protocol: Further experiments were performed to verify the ability of these P5 analogs to modulate the LDLR pathway in HepG2 cells.

LDLR = test system: LDLR; set-up: method as in 3 sources, ref 48 = [48]; doi:10.1111/jfbc.12757; 48. Lammi C. Zanoni C. Arnoldi A. Aiello G. […] (P3), a peptide from lupin protein, absorbed by Caco-2 cells, modulates cholesterol metabolism in HepG2 cells via SREBP-1 activation J. Food B ||| ref 22 = [22]; doi:10.1016/j.jff.2017.02.009; 22. Zanoni C. Aiello G. Arnoldi A. Lammi C. Investigations on the hypocholesterolaemic activity of […] and LTFPGSAED, two peptides from lupin β-conglutin: Focus on LDLR and PCSK9 pathways J. Fu ||| ref 24 = [24]; PMID 33808034; doi:10.3390/nu13030863; 24. Lammi C. Aiello G. Bollati C. Li J. Bartolomei M. Ranaldi G. Ferruzza S. Fassi E.M.A. Grazioso G. Sambuy Y. Trans-Epithelial Transport, Metabolism, and Biological Activity Assessment of the Multi-; settings: via compensatory upregulation of SREBP-1; cited from earlier work
PCSK9 = test system: PCSK9; set-up: method as in 3 sources, ref 49 = [49]; PMID 35011066; doi:10.3390/nu14010193; 49. Macchi C. Greco M.F. Ferri N. Magni P. Arnoldi A. Corsini A. Sirtori C.R. Ruscica M. Lammi C. Impact of Soy β-Conglycinin Peptides on PCSK9 Protein Expression in HepG2 Cells Nutrients 2021 14 193 ||| ref 22 = [22]; doi:10.1016/j.jff.2017.02.009; 22. Zanoni C. Aiello G. Arnoldi A. Lammi C. Investigations on the hypocholesterolaemic activity of […] and LTFPGSAED, two peptides from lupin β-conglutin: Focus on LDLR and PCSK9 pathways J. Fu ||| ref 24 = [24]; PMID 33808034; doi:10.3390/nu13030863; 24. Lammi C. Aiello G. Bollati C. Li J. Bartolomei M. Ranaldi G. Ferruzza S. Fassi E.M.A. Grazioso G. Sambuy Y. Trans-Epithelial Transport, Metabolism, and Biological Activity Assessment of the Multi-; settings: 250 µM, via modulation of HNF1-α; cited from earlier work
mature PCSK9 (secreted) = test system: mature PCSK9 (secreted); set-up: method as in PMID 35011066; settings: 250 µM, via modulation of HNF1-α; cited from earlier work

Question: What does the source list for “PCSK9: PCSK9 added at 4 µg/mL to HepG2 cells”?
Answer: decrease of LDLR level by PCSK9 alone [1]: 25.4 ± 1.6%; reduction in uptake of fluorescent LDL by PCSK9 alone (LDL uptake, HepG2 cells [2]): 43.6 ± 9.6%

Question: For TVFTSWEEYLDWV [Pep2-8], which “restoration of LDLR protein levels vs P5 analogs” value [3] is on record?
Answer: less efficient than P5 analogs

Question: And the “restoration of hepatocyte LDL absorption vs P5 analogs” value (LDL uptake, HepG2 cells [4])?
Answer: less efficient than P5 analogs

Question: Which “HMG-CoAR activity (P3, words)” value [5] does the source give for “YDFYPSSTKDQQS [Peptide P3, a peptide from lupin protein]” here?
Answer: inhibits HMG-CoAR activity

Question: And the “SREBP-2 activation (P3, words)” value (SREBP-2)?
Answer: without SREBP-2 activation

Question: And the “LDLR protein levels (P3, words)” value (LDLR)?
Answer: increase in the LDLR protein levels

Question: Which results are given for “YVVNPDNNEN [peptide from soybean β-Conglycinin]”?
Answer: HMG-CoAR inhibition (YVVNPDNNEN, words) [5]: able to inhibit the HMG-CoAR activity; PCSK9 protein level (YVVNPDNNEN, words) (PCSK9): reduces the PCSK9 protein level; PCSK9 secretion (YVVNPDNNEN, words) (mature PCSK9 (secreted)): reduces the PCSK9 protein level and its secretion
